Here are results for four compounds from patent US20120196830A1, “KITS AND IMPROVED COMPOSITIONS FOR TREATING LOWER URINARY TRACT DISORDERS” (priority 2005, published 2012).

Series [1] relates to IC patients. The settings on record: intravesical, interstitial cystitis; cited from earlier work.
Series [2] in a line: Uncharged fraction of lidocaine by Henderson-Hasselbalch equation. The format is physicochemical. The source says:
For the acute-acting anesthetic to function properly, it typically needs to be in a pH environment that enables the chemical form of the drug to be neutral thereby allowing the molecule to traverse the membranes and gain access to the neurons underlying the bladder epithelium. To achieve this pH, a buffer must be provided so that the pH is sufficiently near to the isoelectric point of the chosen anesthetic to ensure that a sufficient portion of the acute-acting anesthetic is present in an uncharged state. A sufficient portion can minimally be 20% up to 100% in its uncharged state and those skilled in the art can use the drug's isoelectric point and the Henderson-Hasselbalch equation to calculate the minimal pH of the solution to achieve the 20% minimal uncharged amount. Preferably, the pH of the solution is such that at least about 40% of the acute-acting anesthetic is present in an uncharged state. […]. This buffering can be achieved by the addition of bicarbonate buffer, Tris (Tris(hydroxymethyl)aminomethane) buffer, MOPS buffer (3-(N-morpholino)propanesulfonic acid), HEPES (N-(2-hydroxyethyl)piperazine-N′-(2-ethanesulfonic acid) buffer, ACES (2-[(2-amino-2-oxoethyl)amino]ethanoesulfonic acid) buffer, ADA (N-(2-acetamido)-2-iminodiacetic acid) buffer, AMPSO (3-[(1,1-dimethyl-2-hydroxyethyl)amino]-2-propanesulfonic acid) buffer, BES (N,N-bis(2-hydroxyethyl)-2-aminoethanesulfonic acid buffer, Bicine (N,N-bis(2-hydroxyethylglycine) buffer, Bis-Tris (bis-(2-hydroxyethyl)imino-tris(hydroxymethyl)methane buffer, CAPS (3-(cyclohexylamino)-1-propanesulfonic acid) buffer, CAPSO (3-(cyclohexylamino)-2-hydroxy-1-propanesulfonic acid) buffer, CHES (2-(N-cyclohexylamino)ethanesulfonic acid) buffer, DIPSO (3-[N,N-bis(2-hydroxyethyl)amino]-2-hydroxy-propanesulfonic acid) buffer, HEPPS(N-(2-hydroxyethylpiperazine)-N′-(3-propanesulfonic acid), buffer, HEPPSO(N-(2-hydroxyethyl)piperazine-N′-(2-hydroxypropanesulfonic acid) buffer, MES (2-(N-morpholino)ethanesulfonic acid) buffer, triethanolamine buffer, imidazole buffer, glycine buffer, ethanolamine buffer, phosphate buffer, MOPSO (3-(N-morpholino)-2-hydroxypropanesulfonic acid) buffer, PIPES (piperazine-N,N′-bis(2-ethanesulfonic acid) buffer, POPSO (piperazine-N,N′-bis(2-hydroxypropaneulfonic acid) buffer; TAPS(N-tris[hydroxymethyl)methyl-3-aminopropanesulfonic acid) buffer, TAPSO (3-[N-tris(hydroxymethyl)methylamino]-2-hydroxy-propanesulfonic acid) buffer, TES (N-tris(hydroxymethyl)methyl-2-aminoethanesulfonic acid) buffer, tricine (N-tris(hydroxymethyl)methylglycine buffer), 2-amino-2-methyl-1,3-propanediol buffer, 2-amino-2-methyl-1-propanol buffer, or another buffer that can buffer the composition to be administered at the appropriate pH value. The buffer to be selected, and the concentration of the buffer to be used, can be chosen by one of ordinary skill in the art to buffer the composition to be administered at a pH value that is close to the isoelectric point of the local anesthetic. […]. For bupivacaine, it is 8.1. For etidocaine, it is 7.7. For flecamide, it is 9.3. Typically, the pH achieved by the use of the buffer is between about 7.0 and about 12.0. More typically, the pH achieved by the use of the buffer is between about 7.0 and about 9.5. Typically, when bicarbonate buffer is used, it is sodium bicarbonate buffer; however, other counterions can be used as described above.

The subject of another series is cancer patients. As to conditions: cited from earlier work.
The subject of series [3] is IC patients. The settings on record: intravesical instillations; cited from earlier work.

Read-outs that look alike come from different tables or passages of the source.

Consider heparin, for which the “patients treated in whom effective” value in the series on IC patients [1] is “approximately 50%”.

`CCN(CC)CC(=O)Nc1c(C)cccc1C` [lidocaine]: the lidocaine uncharged is 5% in series [2] (pH 6.6); 10% in series [2] (pH 7.0); 20% in series [2] (pH 7.2); 30% in series [2] (pH 7.5); 40% in series [2] (pH 7.7); 50% in series [2] (pH 7.9).

On to `O=S(=O)(O)CCS` [Mesnex, mesna], for which the “frequency of adverse events (all AEs)” value in the series with cancer patients (IV) is 85%; in the series on cancer patients (oral), 89%.

In the case of `C[S+](C)[O-]` [DMSO, dimethylsulfoxide], the “IC patients treated with benefit” value with IC patients [3] is given as around 50%.
